Measured values: US6737383B1, “Herbicidal oxadiazolidines” (priority 1999, dated 2004)

Legend:
bedstraw = assay: Test B pre/postemergence bedstraw; type: in vivo, Galium aparine
Procedure, shortened: (§1)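 Response is a visual 0-to-10 score relative to untreated plants, where 0 means no effect and 10 means complete control, taken twelve to sixteen days after application. Treatments went onto soil at planting and onto foliage of 1- to 4-leaf plants, using a surfactant-containing non-phytotoxic solvent.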

blackgrass = assay: Test B pre/postemergence blackgrass; type: in vivo, Alopecurus myosuroides
Procedure, shortened: as §1

surinam grass = assay: Test B pre/postemergence surinam grass; type: in vivo, Brachiaria decumbens
Procedure, shortened: as §1

cocklebur = assay: Test B pre/postemergence cocklebur; type: in vivo, Xanthium strumarium
Procedure, shortened: as §1

corn = assay: Test B pre/postemergence corn; type: in vivo, Zea mays
Procedure, shortened: as §1

crabgrass = assay: Test B pre/postemergence crabgrass; type: in vivo, Digitaria sanguinalis
Procedure, shortened: as §1

giant foxtail = assay: Test B pre/postemergence giant foxtail; type: in vivo, Setaria faberii
Procedure, shortened: as §1

morningglory = assay: Test B pre/postemergence morningglory; type: in vivo, Ipomoea hederacea
Procedure, shortened: as §1

pigweed = assay: Test B pre/postemergence pigweed; type: in vivo, Amaranthus retroflexus
Procedure, shortened: as §1

rape = assay: Test B pre/postemergence rape; type: in vivo, Brassica napus
Procedure, shortened: as §1

soybean = assay: Test B pre/postemergence soybean; type: in vivo, Glycine max
Procedure, shortened: as §1

sugar beet = assay: Test B pre/postemergence sugar beet; type: in vivo, Beta vulgaris
Procedure, shortened: as §1

velvetleaf = assay: Test B pre/postemergence velvetleaf; type: in vivo, Abutilon theophrasti
Procedure, shortened: as §1

wheat = assay: Test B pre/postemergence wheat; type: in vivo, Triticum aestivum
Procedure, shortened: as §1

wild oat = assay: Test B pre/postemergence wild oat; type: in vivo, Avena fatua
Procedure, shortened: as §1

purple nutsedge = assay: Test B pre/postemergence purple nutsedge; type: in vivo, Cyperus rotundus
Procedure, shortened: as §1

[1] = Postemergence, Rate 125 g/ha, scale 0 to 10, 0 is no effect, 10 is complete control
[2] = Preemergence, Rate 62 g/ha, scale 0 to 10 (0 no effect, 10 complete control)
[3] = Preemergence, Rate 125 g/ha, scale 0 to 10, 0 is no effect, 10 is complete control
[4] = Preemergence, Rate 500 g/ha, scale of 0 to 10 where 0 is no effect and 10 is complete control
[5] = Rate 250 g/ha, Postemergence, scale of 0 to 10 where 0 is no effect and 10 is complete control
[6] = Postemergence, Rate 62 g/ha, scale of 0 to 10, 0 is no effect, 10 is complete control
[7] = Postemergence, Rate 500 g/ha, scale 0 to 10, 0 is no effect, 10 is complete control

CC(=O)OCCCCn1c(=O)on(C(=O)N(c2ccc(Cl)cc2)C(C)C)c1=O [Compound 536]
6: Plant response rating, Soybean (soybean; [7])
0: Bedstraw plant response rating (bedstraw; [1]) | Bedstraw plant response rating (bedstraw; [2]) | Bedstraw plant response rating (bedstraw; [3]) | Bedstraw plant response rating (0 to 10 scale) (bedstraw; Preemergence, Rate 250 g/ha) | Bedstraw plant response rating (bedstraw; [4]) | Plant response rating, Bedstraw (bedstraw; [5]) | Blackgrass plant response rating (blackgrass; [6]) | Blackgrass plant response rating (blackgrass; [1]) | Plant response rating, Blackgrass (blackgrass; [7]) | Blackgrass plant response rating (blackgrass; [2]) | Blackgrass plant response rating (blackgrass; [3]) | Blackgrass plant response rating (0 to 10 scale) (blackgrass; Preemergence, Rate 250 g/ha) | Blackgrass plant response rating (blackgrass; [4]) | Plant response rating, Blackgrass (blackgrass; [5]) | B. signalgrass plant response rating (surinam grass; [6]) | B. signalgrass plant response rating (surinam grass; [1]) | Plant response rating, B. signalgrass (surinam grass; [7]) | B. signalgrass plant response rating (surinam grass; [2]) | B. signalgrass plant response rating (surinam grass; [3]) | B. signalgrass plant response rating (0 to 10 scale, 0 is no effect, 10 is complete control) (surinam grass; Preemergence, Rate 250 g/ha) | B. signalgrass plant response rating (surinam grass; [4]) | Plant response rating, B. signalgrass (surinam grass; [5]) | Cocklebur plant response rating (cocklebur; [6]) | Cocklebur plant response rating (cocklebur; [1]) | Plant response rating, Cocklebur (cocklebur; [7]) | Cocklebur plant response rating (cocklebur; [2]) | Cocklebur plant response rating (cocklebur; [3]) | Cocklebur plant response rating (0 to 10 scale) (cocklebur; Preemergence, Rate 250 g/ha) | Cocklebur plant response rating (cocklebur; [4]) | Plant response rating, Cocklebur (cocklebur; [5]) | Corn plant response rating (corn; [6]) | Corn plant response rating (corn; [1]) | Plant response rating, Corn (corn; [7]) | Corn plant response rating (corn; [2]) | Corn plant response rating (corn; [3]) | Corn plant response rating (0 to 10 scale) (corn; Preemergence, Rate 250 g/ha) | Corn plant response rating (corn; [4]) | Plant response rating, Corn (corn; [5]) | Crabgrass plant response rating (crabgrass; [6]) | Crabgrass plant response rating (crabgrass; [2]) | Crabgrass plant response rating (crabgrass; [3]) | Crabgrass plant response rating (0 to 10 scale) (crabgrass; Preemergence, Rate 250 g/ha) | Giant foxtail plant response rating (giant foxtail; [6]) | Giant foxtail plant response rating (giant foxtail; [1]) | Plant response rating, Giant foxtail (giant foxtail; [7]) | Plant response rating, Giant foxtail (giant foxtail; [5]) | Morningglory plant response rating (morningglory; [2]) | Morningglory plant response rating (morningglory; [3]) | Redroot pigweed plant response rating (pigweed; [6]) | Redroot pigweed plant response rating (pigweed; [1]) | Redroot pigweed plant response rating (pigweed; [2]) | Redroot pigweed plant response rating (pigweed; [3]) | Redroot pigweed plant response rating (0 to 10 scale) (pigweed; Preemergence, Rate 250 g/ha) | Redroot pigweed plant response rating (pigweed; [4]) | Plant response rating, Redroot pigweed (pigweed; [5]) | Rape plant response rating (rape; [6]) | Rape plant response rating (rape; [1]) | Plant response rating, Rape (rape; [7]) | Rape plant response rating (rape; [2]) | Rape plant response rating (rape; [3]) | Rape plant response rating (0 to 10 scale) (rape; Preemergence, Rate 250 g/ha) | Rape plant response rating (rape; [4]) | Plant response rating, Rape (rape; [5]) | Soybean plant response rating (soybean; [2]) | Soybean plant response rating (soybean; [3]) | Soybean plant response rating (0 to 10 scale) (soybean; Preemergence, Rate 250 g/ha) | Soybean plant response rating (soybean; [4]) | Sugarbeets plant response rating (sugar beet; [6]) | Sugarbeets plant response rating (sugar beet; [1]) | Plant response rating, Sugarbeets (sugar beet; [7]) | Sugarbeets plant response rating (sugar beet; [2]) | Sugarbeets plant response rating (sugar beet; [3]) | Plant response rating, Sugarbeets (sugar beet; [5]) | Velvetleaf plant response rating (velvetleaf; [6]) | Velvetleaf plant response rating (velvetleaf; [1]) | Plant response rating, Velvetleaf (velvetleaf; [7]) | Velvetleaf plant response rating (velvetleaf; [2]) | Velvetleaf plant response rating (velvetleaf; [3]) | Velvetleaf plant response rating (0 to 10 scale) (velvetleaf; Preemergence, Rate 250 g/ha) | Velvetleaf plant response rating (velvetleaf; [4]) | Plant response rating, Velvetleaf (velvetleaf; [5]) | Wheat plant response rating (wheat; [6]) | Wheat plant response rating (wheat; [1]) | Plant response rating, Wheat (wheat; [7]) | Wheat plant response rating (wheat; [2]) | Wheat plant response rating (wheat; [3]) | Wheat plant response rating (0 to 10 scale) (wheat; Preemergence, Rate 250 g/ha) | Wheat plant response rating (wheat; [4]) | Plant response rating, Wheat (wheat; [5]) | Wild oats plant response rating (wild oat; [6]) | Wild oats plant response rating (wild oat; [1]) | Plant response rating, Wild oats (wild oat; [7]) | Wild oats plant response rating (wild oat; [2]) | Wild oats plant response rating (wild oat; [3]) | Wild oats plant response rating (0 to 10 scale) (wild oat; Preemergence, Rate 250 g/ha) | Wild oats plant response rating (wild oat; [4]) | Plant response rating, Wild oats (wild oat; [5]) | Nutsedge plant response rating (purple nutsedge; [6]) | Nutsedge plant response rating (purple nutsedge; [1]) | Plant response rating, Nutsedge (purple nutsedge; [7]) | Nutsedge plant response rating (purple nutsedge; [2]) | Nutsedge plant response rating (purple nutsedge; [3]) | Nutsedge plant response rating (0 to 10 scale) (purple nutsedge; Preemergence, Rate 250 g/ha) | Nutsedge plant response rating (purple nutsedge; [4]) | Plant response rating, Nutsedge (purple nutsedge; [5])
3: Plant response rating, Crabgrass (crabgrass; [7]) | Sugarbeets plant response rating (sugar beet; [4])
7: Giant foxtail plant response rating (giant foxtail; [2])
5: Crabgrass plant response rating (crabgrass; [1]) | Plant response rating, Crabgrass (crabgrass; [5])
9: Giant foxtail plant response rating (giant foxtail; [3])
10: Giant foxtail plant response rating (0 to 10 scale) (giant foxtail; Preemergence, Rate 250 g/ha) | Giant foxtail plant response rating (giant foxtail; [4])
4: Soybean plant response rating (soybean; [1]) | Plant response rating, Soybean (soybean; [5])
8: Plant response rating, Redroot pigweed (pigweed; [7])
2: Crabgrass plant response rating (crabgrass; [4]) | Morningglory plant response rating (morningglory; [6]) | Morningglory plant response rating (morningglory; [1]) | Plant response rating, Morningglory (morningglory; [7]) | Plant response rating, Morningglory (morningglory; [5]) | Soybean plant response rating (soybean; [6]) | Sugarbeets plant response rating (0 to 10 scale) (sugar beet; Preemergence, Rate 250 g/ha)
